These results are taken from patent US20110301194A1, “Method for Determining Treatment Efficacy” (ArQule, Inc., priority 2010, published 2011).

This assay has as its system various cancers. The experiment in a line: Anti-proliferative effect of combinations, in vitro and in vivo. From the text: These cancers include, but are not limited to, lung cancer, small cell lung cancer, non-small cell lung cancer, colon cancer, breast cancer, pancreatic cancer, prostate cancer, renal cancer, cervical cancer, brain cancer, gastric/stomach cancer, uterine cancer, intestinal cancer, hepatic cancer, chronic myelogenous leukemia, melanoma, ovarian cancer, translocation-associated renal cell carcinoma (RCC), alveolar soft part sarcoma (ASPS), clear cell sarcoma (CCS), and hepatocellular carcinoma. The anti-proliferative effects of these combinational treatments are increased/enhanced in cell proliferative disorders and cancers in which the effected cells constitutively express or over-express c-Met. In addition, synergistic anti-proliferative effects are shown by (−)-trans-3-(5,6-dihydro-4H-pyrrolo[3,2,1-ij]quinolin-1-yl)-4-(1H-indol-3-yl) pyrrolidine-2,5-dione in combination with sorafenib in breast cancer, cervical cancer, lung cancer, small cell lung cancer, non-small cell lung cancer, melanoma, colon cancer, pancreatic cancer, renal cancer and gastric/stomach cancer; by (−)-trans-3-(5,6-dihydro-4H-pyrrolo[3,2,1-ij]quinolin-1-yl)-4-(1H-indol-3-yl)pyrrolidine-2,5-dione in combination with sunitinib in gastric/stomach cancer; by (−)-trans-3-(5,6-dihydro-4H-pyrrolo[3,2,1-ij]quinolin-1-yl)-4-(1H-indol-3-yl)pyrrolidine-2,5-dione in combination with erlotinib in lung cancer, small cell lung cancer, non-small cell lung cancer and colon cancer; and by (−)-trans-3-(5,6-dihydro-4H-pyrrolo[3,2,1-ij]quinolin-1-yl)-4-(1H-indol-3-yl)pyrrolidine-2,5-dione in combination with cisplatin in pancreatic cancer.

For the compound `O=C1NC(=O)[C@@H](c2cn3c4c(cccc24)CCC3)[C@@H]1c1c[nH]c2ccccc12` [Agent A, (−)-trans-3-(5,6-dihydro-4H-pyrrolo[3,2,1-ij]quinolin-1-yl)-4-(1H-indol-3-yl)pyrrolidine-2,5-dione], the “anti-proliferative effects in combination with sorafenib” value (breast, cervical, lung, small cell lung, non-small cell lung cancer, melanoma, colon, pancreatic, renal and gastric/stomach cancer) is “synergistic”. Besides, the “anti-proliferative effects in combination with sunitinib” value (gastric/stomach cancer) is given as “synergistic”. In addition, the “anti-proliferative effect in combination” value (in combination with sorafenib, sunitinib, erlotinib, gefitinib, cisplatin, carboplatin or capecitabine, various cancers, in vitro and in vivo) was “at least an additive”. The “anti-proliferative effects in combination with erlotinib” value (lung, small cell lung, non-small cell lung and colon cancer) is given as “synergistic”. Under “pancreatic cancer”, the “anti-proliferative effects in combination with cisplatin” value was “synergistic”.
